# Source: US12589094B2, “Concomitant administration of glucocorticoid receptor modulator relacorilant and paclitaxel, a dual substrate of CYP2C8 and CYP3A4” (Corcept Therapeutics Incorporated, priority 2020, dated 2026)
# Values joined by “and” are separate entries in the source; they are usually repeats but may differ in a detail not shown here. Equal entries are not always repeated. “Also recorded” adds a separate entry of the source.
# Experiments:
# CYP3A4 [1] = target: T1, CYP3A4 (Homo sapiens, UniProt P08684); experiment: clinical; details: in vivo, po, 2.5 mg
# T1 sequence (P08684 whole entry): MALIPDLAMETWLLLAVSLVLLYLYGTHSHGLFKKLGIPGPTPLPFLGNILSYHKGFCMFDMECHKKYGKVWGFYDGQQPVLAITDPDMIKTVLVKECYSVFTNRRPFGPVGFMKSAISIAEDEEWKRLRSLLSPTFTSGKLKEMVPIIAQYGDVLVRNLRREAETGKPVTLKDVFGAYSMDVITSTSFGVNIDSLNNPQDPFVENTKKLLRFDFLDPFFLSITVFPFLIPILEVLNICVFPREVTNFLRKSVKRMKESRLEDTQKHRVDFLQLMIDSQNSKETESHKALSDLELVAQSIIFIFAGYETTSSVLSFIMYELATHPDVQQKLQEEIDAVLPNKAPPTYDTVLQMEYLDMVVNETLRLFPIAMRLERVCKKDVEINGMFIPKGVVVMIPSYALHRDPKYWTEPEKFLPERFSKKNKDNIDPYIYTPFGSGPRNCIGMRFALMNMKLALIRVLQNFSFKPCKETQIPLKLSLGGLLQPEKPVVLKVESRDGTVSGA
# Procedure: (§1) An open-label, crossover study was conducted in healthy subjects to determine the effect of relacorilant on the plasma exposure of midazolam, a known substrate of CYP3A4, and pioglitazone, a known substrate of CYP2C8. A single dose of midazolam 2.5 mg was administered alone and intensive pharmacokinetic (PK) samples were collected before dosing (0 hour) and at 0.25, 0.5, 1, 1.5, 2, 4, 6, 8, 12, 16, and 24 hours post-dose. […] Relacorilant 350 mg was then administered once a day for 9 consecutive days. On the tenth day of once-daily relacorilant dosing, a single dose of midazolam 2.5 mg was administered in combination with relacorilant 350 mg and intensive PK samples were again collected at pre-dose though 24 hours post-dose.
# CYP3A4 [2] = target: T1, CYP3A4; details: for AUC0-tz, Ratio of Geometric LSMs (%) / AUCinf, Ratio of Geometric LSMs (%) / Cmax, Ratio of Geometric LSMs (%): 100 * Test/Reference, midazolam with 350 mg relacorilant (Day 14) vs midazolam alone (Day 1)
# Procedure: as §1
# [3] = Pharmacokinetics of nab-paclitaxel alone or with relacorilant in patients with advanced solid tumors (Study CORT125134-550); type: in vivo, human; details: cancer patients; same dose administered alone as comparison
# Text: The combination of relacorilant and nab-paclitaxel has been evaluated in patients with advanced solid tumors.
# CYP2C8 [4] = target: T2, CYP2C8 (Homo sapiens, UniProt P10632); experiment: Clinical drug-drug interaction study in healthy volunteers: effect of relacorilant on plasma pioglitazone (CYP2C8 substrate)
# T2 sequence (P10632 1-490): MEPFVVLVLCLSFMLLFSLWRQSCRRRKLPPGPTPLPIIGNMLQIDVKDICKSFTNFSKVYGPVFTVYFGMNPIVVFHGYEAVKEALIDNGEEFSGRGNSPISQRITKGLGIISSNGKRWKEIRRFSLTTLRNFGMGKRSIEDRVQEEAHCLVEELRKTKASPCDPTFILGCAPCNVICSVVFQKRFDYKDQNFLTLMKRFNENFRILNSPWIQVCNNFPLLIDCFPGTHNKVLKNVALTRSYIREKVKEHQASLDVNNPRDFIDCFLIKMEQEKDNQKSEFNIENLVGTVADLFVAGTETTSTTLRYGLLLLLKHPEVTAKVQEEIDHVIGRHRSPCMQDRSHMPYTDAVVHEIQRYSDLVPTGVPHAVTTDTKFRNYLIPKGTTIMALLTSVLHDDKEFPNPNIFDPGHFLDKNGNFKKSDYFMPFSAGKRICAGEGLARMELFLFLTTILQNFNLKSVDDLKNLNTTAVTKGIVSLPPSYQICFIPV
# Procedure: An open-label, crossover study was conducted in healthy subjects to determine the effect of relacorilant on the plasma exposure of midazolam, a known substrate of CYP3A4, and pioglitazone, a known substrate of CYP2C8. A single dose of midazolam 2.5 mg was administered alone and intensive pharmacokinetic (PK) samples were collected before dosing (0 hour) and at 0.25, 0.5, 1, 1.5, 2, 4, 6, 8, 12, 16, and 24 hours post-dose. On the following day, a single dose of 15 mg of pioglitazone was administered alone and intensive PK samples were collected before dosing (0 hour) and at 0.5, 1, 1.5, 2, 2.5, 3, 4, 6, 8, 12, 18, 24, 36, 48, 60, and 72 hours post-dose. Relacorilant 350 mg was then administered once a day for 9 consecutive days. On the tenth day of once-daily relacorilant dosing, a single dose of midazolam 2.5 mg was administered in combination with relacorilant 350 mg and intensive PK samples were again collected at pre-dose though 24 hours post-dose. On the following day, a single dose of 15 mg of pioglitazone was administered in combination with relacorilant 350 mg and intensive pharmacokinetic (PK) samples were again collected at pre-dose through 72 hours post-dose. The plasma concentrations of midazolam and its metabolite, 1-OH midazolam, and pioglitazone and its metabolite, pioglitazone M4 were evaluated by validated bioanalytical assays on each of dosing occasions of midazolam or pioglitazone.
# CYP2C8 [5] = target: T2, CYP2C8; experiment: In vitro CYP inhibition assay, Assay 1 (3-CYP mix); type: in vitro ADME; set-up: from tissue; host or cells: healthy human subjects, in vivo (endogenous enzyme); details: CYP2C8 expressed in E. coli, substrate amodiaquine, 10 min incubation, 37° C., pH 7.4
# Procedure: Cytochrome P450 (CYP) isoforms CYP2B6, CYP2C8 and CYP3A5, heterologously expressed in E. coli, were obtained from Cypex and mixed to produce a 3-CYP mix. […] A selective and FDA accepted substrate for each isoform was present in the reaction at a concentration around its Km.
# (§2) The CYP mix and a CYP substrate cocktail were added and the tubes warmed for 3 minutes whilst mixing on a BioShake IQ (37° C., 1500 rpm). NADPH (final concentration 1 mM) was added and the mixture was incubated for 10 minutes. Methanol containing an internal standard (1 μM tolbutamide) was then added to all samples, and these were mixed and placed at −20° C. for ≥1 hour to quench the reaction and allow protein to precipitate.
# All samples were centrifuged (2500×g, 20 minutes, 4° C.). The supernatants were transferred to a fresh 96 well plate, compatible with an autosampler. The plate was sealed with a pre-slit silicone mat and the metabolites were analyzed by LC-MS/MS.
# Control CYP inhibitors (IC50—appropriate concentration range, final assay concentration 1% DMSO) were added as a cocktail. […]
# In Assay 1, the final concentration of the 3-CYP mix was 18 pmol/mL for CYP2B6 (where pmol is picomoles), 1 pmol/mL for CYP2C and 5 pmol/mL for CYP3A5. […] The metabolites measured were: CYP2B6, hydroxybupropion; CYP2C8, N-desethyl amodiaquine; CYP3A5, 1′-hydroxymidazolam. […]
# CYP3A4 [6] = target: T1, CYP3A4; experiment: In vitro CYP inhibition assay, Assay 2 (5-CYP mix); type: in vitro ADME; set-up: from tissue; host or cells: healthy human subjects, in vivo (endogenous enzyme); details: CYP3A4 expressed in E. coli, substrate midazolam, 10 min incubation, 37° C., pH 7.4
# Procedure: In a separate assay, isoforms for CYP1A2, CYP2C9, CYP2C19, CYP2D6, and CYP3A4 heterologously expressed in E. coli and obtained from Cypex as a custom made mixture of 5 isoforms. A selective and FDA accepted substrate for each isoform was present in the reaction at a concentration around its Km.
# as §2
# All samples were centrifuged (2500×g, 20 minutes, 4° C.). […] The plate was sealed with a pre-slit silicone mat and the metabolites were analyzed by LC-MS/MS. […]
# In Assay 2, the final concentration of the 5-CYP mix was 32.5 pmol/ml for each of the enzymes evaluated (i.e., CYP1A2, CYP2C9, CYP2C19, CYP2D6, and CYP3A4). […]
# In Assay 2, the CYP substrate cocktail comprised the following components: CYP1A2, tacrine; CYP2C9, diclofenac; CYP2C19, (S)mephenytoin; CYP2D6, bufuralol; CYP3A4, midazolam. The metabolites measured were: CYP1A2, 1-hydroxytacrine; CYP2C9, 4′-hydroxydiclofenac; CYP2C19, 4′-hydroxymephenytoin; CYP2D6, hydroxybufuralol; CYP3A4, 1′-hydroxymidazolam. […]
# [7] = plasma, healthy subjects, single oral 2.5 mg midazolam hydrochloride alone, Day 1
# [8] = plasma, healthy subjects, single oral 2.5 mg midazolam hydrochloride with 350 mg relacorilant, Day 14
# [9] = 100 * Test/Reference, pioglitazone with 350 mg relacorilant (Day 15) vs pioglitazone alone (Day 2)
structure (smiles),measurement,setting,value
"Cc1ncc2n1-c1ccc(Cl)cc1C(c1ccccc1F)=NC2 [Midazolam, midazolam]",AUC(0-inf),CYP3A4 [1],0.033 µg·h/mL
same,AUC(0-t),CYP3A4 [1],0.0309 µg·h/mL
same,Cmax,CYP3A4 [1],0.0118 µg/mL
same,"AUC0-tz, Ratio of Geometric LSMs (%)",CYP3A4 [2],878.43%
same,"AUCinf, Ratio of Geometric LSMs (%)",CYP3A4 [2],892.81%
same,"Cmax, Ratio of Geometric LSMs (%)",CYP3A4 [2],310.98%
same,"increase in plasma exposure (AUCinf) when administered with relacorilant, relative to midazolam alone","CYP3A4 [2]; healthy subjects, once daily relacorilant 350 mg",8 fold and > 8 fold
OCc1ncc2n1-c1ccc(Cl)cc1C(c1ccccc1F)=NC2 [1-OH midazolam],"AUC0-tz, Ratio of Geometric LSMs (%)",CYP3A4 [2],796.64%
same,"AUCinf, Ratio of Geometric LSMs (%)",CYP3A4 [2],814.51%
same,"Cmax, Ratio of Geometric LSMs (%)",CYP3A4 [2],164.86%
same,"AUC0-tz, Geometric LSM, Reference (Day 1) Treatment A",CYP3A4 [2]; [7],0.00936 µg·h/mL
same,"AUCinf, Geometric LSM, Reference (Day 1) Treatment A",CYP3A4 [2]; [7],0.01028 µg·h/mL
same,"Cmax, Geometric LSM, Reference (Day 1) Treatment A",CYP3A4 [2]; [7],0.004038 µg/mL
same,"AUC0-tz, Geometric LSM, Test (Day 14) Treatment D",CYP3A4 [2]; [8],0.07456 µg·h/mL
same,"AUCinf, Geometric LSM, Test (Day 14) Treatment D",CYP3A4 [2]; [8],0.08372 µg·h/mL
same,"Cmax, Geometric LSM, Test (Day 14) Treatment D",CYP3A4 [2]; [8],0.006657 µg/mL
CC(=O)O[C@H]1C(=O)[C@@]2(C)[C@H]([C@H](OC(=O)c3ccccc3)[C@]3(O)C[C@H](OC(=O)[C@H](O)[C@@H](NC(=O)c4ccccc4)c4ccccc4)C(C)=C1C3(C)C)[C@]1(OC(C)=O)CO[C@@H]1C[C@@H]2O [paclitaxel],"increase in plasma levels/exposure (AUC) when co-administered with relacorilant, relative to alone",[3],about 80%
"CCc1ccc(CCOc2ccc(CC3SC(=O)NC3=O)cc2)nc1 (stereo not drawn) [Pioglitazone, pioglitazone]","AUC0-tz, Ratio of Geometric LSMs (%)",CYP2C8 [4]; [9],74.71%
same,"AUCinf, Ratio of Geometric LSMs (%)",CYP2C8 [4]; [9],74.83%
same,"Cmax, Ratio of Geometric LSMs (%)",CYP2C8 [4]; [9],77.82%
same,change in plasma exposure/concentration when administered with relacorilant,"CYP2C8 [4]; healthy volunteers, once daily relacorilant 350 mg, pioglitazone 15 mg",no increase; also recorded: did not increase
same,AUC(0-inf),"CYP2C8 [4]; human, plasma, po, 15 mg",5.41 µg·h/mL
same,AUC(0-t),"CYP2C8 [4]; human, plasma, po, 15 mg",5.29 µg·h/mL
same,Cmax,"CYP2C8 [4]; human, plasma, po, 15 mg",0.484 µg/mL
"Cn1cc(S(=O)(=O)N2CCC3=Cc4c(cnn4-c4ccc(F)cc4)C[C@]3(C(=O)c3cc(C(F)(F)F)ccn3)C2)cn1 [relacorilant, (R)-(1-(4-fluorophenyl)-6-((1-methyl-1H-pyrazol-4-yl)sulfonyl)-4,4a,5,6,7,8-hexahydro-1H-pyrazolo[3,4-g]isoquinolin-4a-yl)(4-(trifluoromethyl)pyridine-2-yl)methanone]",inhibition of CYP2C8 in vivo,"CYP2C8 [4]; healthy subjects, once daily relacorilant 350 mg, probe pioglitazone",does not inhibit
same,IC50,CYP2C8 [5],0.21 µM
same,IC50,CYP3A4 [6],1.32 µM
CC(O)c1ccc(CCOc2ccc(CC3SC(=O)NC3=O)cc2)nc1 (stereo not drawn) [Pioglitazone M4],"AUC0-tz, Geometric LSM, Reference (Day 2) Treatment B","CYP2C8 [4]; human, in vivo, po, 15 mg",10.46 µg·h/mL
same,"AUCinf, Geometric LSM, Reference (Day 2) Treatment B","CYP2C8 [4]; human, in vivo, po, 15 mg",12.89 µg·h/mL
same,"Cmax, Geometric LSM, Reference (Day 2) Treatment B","CYP2C8 [4]; human, in vivo, po, 15 mg",0.2373 µg/mL
